According to US4191780A, “Bromhexine derivatives and process for making same” (priority 1978, dated 1980):
Entries after “also recorded” stand apart in the source; their conditions may differ.

Columns and labels:
[1] = system: bronchial secretion; conditions: animal experiments; Engelhorn 1966, Merker 1966, Boyd 1966; cited from earlier work
[2] = system: various types of cough; conditions: animal experiments; Engelhorn 1966, Merker 1966, Boyd 1966; cited from earlier work
[3] = Long-term toxicity in rats: urine analysis; type: in vivo
Method: Urine analysis is carried out on 6 animals per group (3 males and 3 females) before as well as 30 and 60 days after treatment. Control group and the animals receiving 250 mg/kg Bromhexine and 350 mg/kg IFT 1026 respectively are observed.
The amount, aspect, colour, pH value, albumin, glucose, bilirubin levels and ketone bodies are recorded using also Ames reactive stripes.

[4] = system: Cough elicited by 15% citric acid spray; test: Antitussive effect in Guinea-pigs and mice (overall); type: in vivo; conditions: mice (oral) and Guinea-pigs (i.p.)
Method: (6) Antitussive effect in Guinea-pigs and mice
The effect was tested 1 hour after oral administration and 30 min. after intraperitoneal application of the antitussive agents on mice and Guinea-pigs respectively.

[5] = Acute toxicity in rats treated orally; type: in vivo; conditions: oral
[6] = system: blood pressure and heart rate; test: Action on blood pressure and heart rate in the anesthetized rat; type: in vivo; conditions: intraperitoneal
Method: After intraperitoneal administration of increasing doses of IFT 1026, blood pressure, heart rate and the amplitude of heart contractions are unchanged. The effect of IFT 1026 at the dose of 450 mg/kg on blood pressure in the anesthesized rat is exemplified by the graph in FIG. No. 1.
FIG. 1--Arterial pressure recorded in the anaesthetized rat before and after IFT 1026 administration.

[7] = system: amphetamine-induced stereotypies; test: Action on the amphetamine-induced stereotypies and toxicity on mice; conditions: 500 mg/kg/10 ml p.o., 60 min before dl-amphetamine 16 mg/kg/ml i.p.
Method: Stereotypies and death are caused 60 min. after treatment with IFT 1026 (500 mg/kg/10 ml p.o.) by injecting dl-amphetamine (16 mg/kg/ml i.p.) to groups of 10 male albino Swiss mice per cage.

Compound: CN(Cc1cc(Br)cc(Br)c1N)C1CCCCC1 [Bromhexine, N-cyclohexyl-N-methyl-2-(2-amino-3,5-dibromo)benzylammonium chloride]
- stimulation of bronchial secretion [1]: marked stimulation
- effects on various types of cough [2]: depressing effects

Compound: COc1ccccc1OCC(=O)Nc1c(Br)cc(Br)cc1CN(C)C1CCCCC1 [IFT 1026, N-(2-guaiacol-glycolyl-amino-3,5-dibromobenzyl)N-cyclohexylmethylamine]
- urine amount, aspect, colour, pH, albumin, glucose, bilirubin, ketone bodies ([3]; 250 mg/kg Bromhexine, 350 mg/kg IFT 1026, 30 and 60 days): no changes occur in said parameters
- impairment in the kidney ([3]; 350 mg/kg IFT 1026): no impairment in the kidney
- antitussive effect compared in terms of the parent compound (Bromhexine) [4]: the same when compared in terms of the parent compound
- antitussive effect compared with Bromhexine [4]: slightly weaker than Bromhexine; also recorded: approximately the same as that of Bromhexine
- behaviour / clinical signs ([5]; high doses (up to 3000 mg/kg)): slight depression in behaviour, occasional tremor and stiffness
- lethal cases ([5]; increasing doses up to 3000 mg/kg, up to the seventh day after treatment): no lethal cases
- amplitude of heart contractions ([6]; increasing doses): unchanged
- heart rate ([6]; increasing doses): unchanged
- blood pressure ([6]; rat, increasing doses (450 mg/kg in FIG. 1)): unchanged
- amphetamine-induced death [7]: not changed
- amphetamine-induced stereotypies [7]: not changed
